Test results reported in patent US12708629B2, “Methods and compositions for reducing parathyroid levels” (EIRGEN PHARMA LTD., priority 2010, dated 2026).

Legend:
[1] = Single-dose pharmacokinetics of oral 25-hydroxyvitamin D3 formulations and IV injection in miniature swine (Example 1); assay type: in vivo, Yucatan miniature swine
Method: Nine oral vitamin D formulations were prepared according to Table 2 below by homogeneously mixing the identified components in the amounts shown and filling the mixtures into hard gelatin capsules. Formulation 9 is an immediate-release formulation according to the prior art, wherein MIGLYOL 812N is the trade name for caprylic/capric triglycerides, available from CONDEA Chemie GmbH of Cranford, New Jersey, USA. […] Each group included five animals.
Blood was collected pre-dose, and at 0.5, 1, 2, 4, 6, 8, 12, 24, 48, 96, 168, 240, 336, 432, 504, 576, and 672 hours post dosing. Serum 25-hydroxyvitamin D3 levels were assayed by Liquid Chromatography/Mass Spectrometry/Mass Spectrometry (LC MS/MS).

[2] = Expected rise of serum 25-hydroxyvitamin D3 in a human, stated after the mini-pig result; assay type: in vivo; conditions: single dose of 50 μg to a human (about 60 kg)
clinical = conditions: human, in vivo, 450 ug
Text: (§1) The modified release dosage formulation was the same as formulation 7 in Table 2 herein, with the following exceptions: (1) a vegetable-based capsule was used in place of a gelatin capsule; (2) hard paraffin content was reduced to 20%; and (3) liquid paraffin (light mineral oil) content was increased to 30%.
(§2) The bioavailability of the modified release dosage form was about 10% measured over the duration of the study (42 days).

iPTH = experiment: Example 8: iPTH in Stage 3 or 4 CKD subjects; assay type: in vivo, human; conditions: single dose: IV 448 μg or 450 μg MR
Text: as §1, §2

[3] = Yucatan, minipig, serum, iv, 250 ug

- AUC(0-inf) [1, 3]: 16600 ng·h/mL
- Cmax [1, 3]: 155 ng/mL
- Tmax [1, 3]: 1.5 h
- AUC(0-t) ([1]; Yucatan, minipig, serum, iv, 250 ug, read-out: AUC (0-672 hr)): 15000 ng·h/mL
- half-life ([1]; Yucatan, minipig, serum, iv, 250 ug, read-out: T½ (converted)): 132 h
- BA ([1]; single 250 μg dose, Group 10 IV injection = 100.0): 100.0%
- expected increase of serum 25-hydroxyvitamin D3 [2]: about 1.4 ng/ml
- Cmax (clinical): 134 ± 19 ng/mL
- half-life (clinical): 1780 h
- tmax, AVG (clinical): 0.49 h
- Tmax (clinical; AVG): 0.5 ± 0.6 h
- Tmax (clinical; Median): 0.25 h
Compound: C=C1CC[C@H](O)C/C1=C/C=C1\CCC[C@]2(C)[C@@H]([C@H](C)CCCC(C)(C)O)CC[C@@H]12 [25-hydroxyvitamin D3]
- effect on mean iPTH (iPTH): minimal to no effect
- effect on mean iPTH (iPTH; listed as IV calcifediol): no clinically meaningful effect
